Measured values reported in patent publication US7265130B2, “NPY Y5 antagonist” (Shionogi & Co., Ltd., priority 1999, dated 2007).

Assays:
[1] = biological target: T1, human NPY Y5 receptor (Homo sapiens, UniProt Q15761); assay: Affinity for NPY Y5 receptor ([125I] peptide YY binding, CHO cell membranes); conditions: inhibition of specific [125I] peptide YY binding, membranes of CHO cells expressing NPY Y5 receptor
T1 construct: expressed in transfected cells
T1 sequence (Q15761 1-445): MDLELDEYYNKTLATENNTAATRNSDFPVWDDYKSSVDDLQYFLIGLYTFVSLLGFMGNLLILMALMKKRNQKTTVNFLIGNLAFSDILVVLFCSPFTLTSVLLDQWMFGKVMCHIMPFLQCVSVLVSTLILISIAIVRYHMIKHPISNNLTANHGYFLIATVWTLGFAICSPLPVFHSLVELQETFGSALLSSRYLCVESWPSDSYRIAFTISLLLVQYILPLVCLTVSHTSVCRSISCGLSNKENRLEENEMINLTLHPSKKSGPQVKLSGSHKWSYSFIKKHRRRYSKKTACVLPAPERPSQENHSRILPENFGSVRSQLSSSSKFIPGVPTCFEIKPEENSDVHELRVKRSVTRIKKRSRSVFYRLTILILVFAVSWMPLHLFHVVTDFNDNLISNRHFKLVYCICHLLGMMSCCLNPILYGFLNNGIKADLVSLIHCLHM
Summary of the method: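 IC50 is inhibition of specific [125I] peptide YY binding (60 pM final; non-specific defined by 200 nM peptide YY), read by gamma counting after filtration. Binding used stably transfected CHO-cell membranes with compound, 2 hours at 25° C, pH 7.4 HEPES-Hanks/0.1% BSA.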

[2] = biological target: T1, human NPY Y5 receptor; assay: cAMP production inhibitory activity in CHO cells; assay type: cell-based; conditions: against 50 nM NPY inhibition of forskolin stimulated cAMP, CHO cells expressing human NPY Y5 receptor
Summary of the method: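 Supernatant cAMP quantified by EIA after HCl stop, following 30 min stimulation with 10 μM forskolin and 50 nM NPY. Compound was added 5 min before stimulation to human NPY Y5-expressing CHO cells pretreated 20 min at 37 °C with 2.5 mM isobutylmethylxanthine.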

Structure (SMILES)	IC50 [1] [nM]	IC50 [2] [nM]
CC(C)(C)S(=O)(=O)NC1CCC(C(=O)Nc2ccc(F)cc2F)CC1 (centres unmarked) [Ia-135]	8.2	49
CC(C)(C)S(=O)(=O)NC1CCC(C(=O)Nc2cc(F)cc(F)c2)CC1 (centres unmarked) [Ia-136]	1.6	13
CC(C)(C)S(=O)(=O)NC1CCC(C(=O)Nc2ccc(F)c(F)c2)CC1 (centres unmarked) [Ia-138]	2.2	28
CC(C)S(=O)(=O)NC1CCC(C(=O)Nc2ccc3c(c2)CCC3)CC1 (centres unmarked) [Ia-141]	1	5.7
Cc1ccc(NC(=O)C2CCC(NS(=O)(=O)C(C)(C)C)CC2)cc1F (centres unmarked) [Ia-161]	1.9	18
CC(C)S(=O)(=O)Nc1ccc(C(=O)Nc2ccc3c(c2)CCC3)cc1 [Ia-163]	7	400
CC(C)(C)S(=O)(=O)NC1CCC(C(=O)Nc2ccc(S(=O)(=O)NC3CCCCC3)cc2)CC1 (centres unmarked) [Ia-169]	1.9	88
CC(C)(C)S(=O)(=O)NC1CCC(C(=O)Nc2ccc(N3CCCCC3=O)cc2)CC1 (centres unmarked) [Ia-173]	6.9	140
CC(C)NS(=O)(=O)c1ccc(NC(=O)C2CCC(NS(=O)(=O)C(C)(C)C)CC2)cc1 (centres unmarked) [Ia-180]	1.9	11
CC(C)NS(=O)(=O)c1cccc(NC(=O)C2CCC(NS(=O)(=O)C(C)(C)C)CC2)c1 (centres unmarked) [Ia-181]	7.7	25
CC(C)(C)S(=O)(=O)NC1CCC(C(=O)Nc2ccc(N3CCCC3=O)cc2)CC1 (centres unmarked) [Ia-183]	1.9	7.8
CC(C)(C)NC(=O)c1ccc(NC(=O)C2CCC(NS(=O)(=O)C(C)(C)C)CC2)cc1 (centres unmarked) [Ia-187]	1.9	60
CC(C)(C)S(=O)(=O)NC1CCC(C(=O)Nc2cccc(NC(=O)C3CCCCC3)c2)CC1 (centres unmarked) [Ia-189]	3.5	95

The next compounds have a lower IC50 [1] than those just listed; values first:

IC50 [1] [nM]	IC50 [2] [nM]	Structure (SMILES)
0.71	1.7	CC(C)(C)S(=O)(=O)Nc1ccc(C(=O)Nc2ccc(-c3ccccc3)cc2)cc1 [Ia-158]
0.76	140	CC(C)(C)S(=O)(=O)NC1CCC(C(=O)Nc2ccc(F)c(C(F)(F)F)c2)CC1 (centres unmarked) [Ia-160]
0.38	4.7	CC(C)(C)S(=O)(=O)NC1CCC(C(=O)Nc2ccc(OC3CCCC3)cc2)CC1 (centres unmarked) [Ia-164]
0.95	13	CC(C)(C)S(=O)(=O)NC1CCC(C(=O)Nc2cccc(S(=O)(=O)NC3CCCCC3)c2)CC1 (centres unmarked) [Ia-168]
0.35	5.4	CC(C)(C)S(=O)(=O)NC1CCC(C(=O)Nc2ccc(OCC3CC3)cc2)CC1 (centres unmarked) [Ia-174]
0.49	9.2	CC(C)(C)S(=O)(=O)NC1CCC(C(=O)Nc2ccc(OC3CCCCC3)cc2)CC1 (centres unmarked) [Ia-175]
0.63	5.1	CC(C)(C)S(=O)(=O)NC1CCC(C(=O)Nc2cccc(OC3CCCCC3)c2)CC1 (centres unmarked) [Ia-176]
0.49	7.5	CC(C)(C)S(=O)(=O)NC1CCC(C(=O)Nc2ccc(-c3ccco3)cc2)CC1 (centres unmarked) [Ia-177]
0.89	19	CC(C)(C)S(=O)(=O)NC1CCC(C(=O)Nc2ccc(-c3ccno3)cc2)CC1 (centres unmarked) [Ia-179]
0.24	2.1	CC(C)(C)S(=O)(=O)NC1CCC(C(=O)Nc2cccc(OCC3CC3)c2)CC1 (centres unmarked) [Ia-182]
0.94	4.4	CC(C)(C)S(=O)(=O)NC1CCC(C(=O)Nc2ccc(S(=O)(=O)N3CCCCC3)cc2)CC1 (centres unmarked) [Ia-185]
0.93	12	CC(C)(C)S(=O)(=O)NC1CCC(C(=O)Nc2cccc(S(=O)(=O)N3CCCCC3)c2)CC1 (centres unmarked) [Ia-186]
0.75	28	CCC(C)NC(=O)c1ccc(NC(=O)C2CCC(NS(=O)(=O)C(C)(C)C)CC2)cc1 (centres unmarked) [Ia-188]
0.34	1000	CC(C)(C)S(=O)(=O)NC1CCC(C(=O)Nc2ccc(NC(=O)C3CCCCC3)cc2)CC1 (centres unmarked) [Ia-190]
0.49	220	CC(C)NC(=O)c1ccc(NC(=O)c2ccc(NS(=O)(=O)C(C)(C)C)cc2)cc1 [Ia-191]
